Patent publication US20040224379A1, “Method and apparatus for detection of toxic substances in a sample” (priority 2000, published 2004)

Tested on: Tetramitus flagellates
Experiment: Microscopic observations of swimming behavior and morphology of Tetramitus flagellates during exposure
Assay type: cell-based, Tetramitus rostratus
Conditions: 10 μg/mL

`O=[N+]([O-])c1cc[n+]([O-])c2ccccc12` [4-nitroquinoline-n-oxide] was tested, and the “Swarming Behavior” value (exposure time 0.5 Hours) was “Normal”, the “Swimming Velocity (% Slow)” value (exposure time 0.5 Hours, cell wraps: 10-20% Slow) was 10-20% and the “Spinner Frequency” value (exposure time 0.5 Hours, cells rotating in a circular pattern) was less than 1%. The “Appearance of Larger Morphs” value (exposure time 0.5 Hours, larger cells with abnormally-formed rostrum and large vacuoles) was 1-5%, the “Appearance of Larger Morphs” value (exposure time 0.9 Hours) was 5-10% and the “Spinner Frequency” value (exposure time 0.9 Hours) was “˜5%”. The “Swarming Behavior” value (exposure time 0.9 Hours) was “Delayed”, the “Swimming Velocity (% Slow)” value (exposure time 0.9 Hours, cell wraps: 50-70% Slow) was 50-70% and the “Appearance of Larger Morphs” value (exposure time 1.6 Hours) was 10-20%. The “Spinner Frequency” value (exposure time 1.6 Hours) was 5-10%, the “Swimming Velocity (% Slow)” value (exposure time 1.6 Hours, cell wraps: 100% Slow) was 100% and the “Appearance of Larger Morphs” value (exposure time 4.5 Hours) was 50%. For the same compound, the “Spinner Frequency” value (exposure time 4.5 Hours) was 20%, the “Swimming Velocity (% Slow)” value (exposure time 4.5 Hours, cell wraps: 100% Slow) was 100% and the “Spinner Frequency” value (exposure time 8.7 Hours) was 70-90%. For the same compound, the “Swimming Velocity” value (exposure time 8.7 Hours) was “Very Slow”, the “Swarming Behavior” value (exposure time 8.7 Hours, cell wraps over rows: No Swarming) was “No” and the “Appearance of Larger Morphs” value (exposure time 8.7 Hours, cell wraps: 100% Rounded cells with large vacuoles) was 100% Rounded cells.
